This is an account of results in BindingDB's records for doi:10.1016/j.bmc.2009.03.040 (Institute For Medical Research, 2009).

pKi: −log10 of the molar value.

The target of this assay is T1, Lethal factor (Bacillus anthracis, UniProt P15917).
T1 sequence (P15917 whole entry): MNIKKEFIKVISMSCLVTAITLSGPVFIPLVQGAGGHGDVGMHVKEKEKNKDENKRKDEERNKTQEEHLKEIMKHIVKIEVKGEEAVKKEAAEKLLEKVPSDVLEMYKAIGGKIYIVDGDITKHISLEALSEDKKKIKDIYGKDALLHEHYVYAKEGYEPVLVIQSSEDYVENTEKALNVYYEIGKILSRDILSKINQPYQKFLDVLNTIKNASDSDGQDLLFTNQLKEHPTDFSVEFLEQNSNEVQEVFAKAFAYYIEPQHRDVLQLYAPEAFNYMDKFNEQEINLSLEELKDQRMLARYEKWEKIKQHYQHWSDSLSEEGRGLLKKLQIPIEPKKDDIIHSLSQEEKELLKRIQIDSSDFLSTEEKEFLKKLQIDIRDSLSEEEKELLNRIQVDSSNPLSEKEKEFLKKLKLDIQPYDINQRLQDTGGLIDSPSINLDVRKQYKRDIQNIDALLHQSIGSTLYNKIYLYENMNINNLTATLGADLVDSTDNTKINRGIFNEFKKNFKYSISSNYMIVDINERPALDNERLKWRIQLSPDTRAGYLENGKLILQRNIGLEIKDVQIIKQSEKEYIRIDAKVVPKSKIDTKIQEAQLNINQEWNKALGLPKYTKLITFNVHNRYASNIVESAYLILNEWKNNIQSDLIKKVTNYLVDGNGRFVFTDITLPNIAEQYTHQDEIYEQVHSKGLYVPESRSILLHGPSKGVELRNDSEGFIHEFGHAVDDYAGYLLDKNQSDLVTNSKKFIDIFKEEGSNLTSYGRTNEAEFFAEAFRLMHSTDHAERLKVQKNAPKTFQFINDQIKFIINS
Put plainly: Inhibition of Bacillus anthracis lethal factor assessed as cleavage of MAPKK by fluorescence peptide cleavage assay.

The term pKi denotes the negative decadic logarithm of the Ki, by convention in mol/L. In the case of `COc1ccc(-c2ccc(S(=O)(=O)Nc3sccc3-c3nc4ccccc4s3)cc2)cc1` [N-(3-(benzo[d]thiazol-2-yl)thiophen-2-yl)-4'-methoxybiphenyl-4-sulfonamide], the pKi is 6.00.
